In ChEMBL document CHEMBL1201862, “PubChem BioAssay data set” (2004):
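Each compound was tested at five concentrations against cells in 96-well plates for 48 hours. Here, GI50 denotes the concentration required for 50% inhibition of growth.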 Active and inactive are the calls of the source. No stated cut-off is given here; in the data, active = GI50 up to about 1.1 µM and inactive = higher.

Experiments:
Assay in all cases: NCI anticancer screen, dose series, 48 h
DMS-273 = system: DMS-273
KM-20L2 = system: KM-20L2
M19-MEL = system: M19-MEL
RXF 631 = system: RXF 631
XF498 = system: XF498
DMS-114 = system: DMS-114
SNB-78 = system: SNB-78
DLD-1 = system: DLD-1

Measured: GI50

O=C1OC(=O)C2C3C=CC(C12)C1C2C=CC2C31 (centres undefined)
inactive: DMS-273 > 100 µM | KM-20L2 > 100 µM | M19-MEL > 100 µM | RXF 631 > 100 µM | XF498 42.4 µM

C=CCCC(OCOCCOC)c1cc(C)c(O[Si](C)(C)C(C)(C)C)c(C)c1 (centres undefined)
inactive: DMS-114 11.7 µM | KM-20L2 13.2 µM | M19-MEL 17.9 µM | RXF 631 15.4 µM | SNB-78 > 100 µM

Cc1nc(-c2cccnc2)sc1C(=O)/C=C/c1cccc([N+](=O)[O-])c1
inactive: DLD-1 > 100 µM | DMS-114 > 100 µM | DMS-273 > 100 µM | KM-20L2 > 100 µM | M19-MEL > 100 µM | RXF 631 > 100 µM

COC(=O)C(C#N)C1NC(=O)c2ccccc21 (centres undefined)
inactive: DLD-1 > 100 µM | DMS-114 > 100 µM | DMS-273 > 100 µM | KM-20L2 > 100 µM | M19-MEL > 100 µM | RXF 631 > 100 µM | SNB-78 > 100 µM

BrC/C=C/C[P+](c1ccccc1)(c1ccccc1)c1ccccc1
inactive: DMS-114 27.5 µM | DMS-273 2.44 µM | KM-20L2 27.2 µM | M19-MEL 10.8 µM | RXF 631 > 100 µM | SNB-78 21 µM | XF498 11.1 µM

CCC/C(=N\NC(=O)c1cc2ccccc2cc1O)C(CC)C(=O)CCC(=O)N(Cc1ccccc1)Cc1ccccc1 (centres undefined)
inactive: DLD-1 58.1 µM | DMS-114 26.3 µM | DMS-273 18.2 µM | KM-20L2 43 µM | M19-MEL 18.7 µM | RXF 631 38.1 µM | SNB-78 > 100 µM

C=C1C(OC(C)=O)CC(OC(C)=O)C2(C)C(OC(C)=O)C(OC(C)=O)C3=C(C)C(OC(=O)/C=C/c4ccccc4)CC(C(OC(C)=O)C12)C3(C)C (centres undefined)
inactive: DLD-1 > 100 µM | DMS-114 > 100 µM | DMS-273 > 100 µM | KM-20L2 > 100 µM | M19-MEL > 100 µM | RXF 631 51.2 µM | SNB-78 38.8 µM

CN(C)CCC1(C2=CCCC2)CC/C(=C\c2ccccc2Cl)C1=O (centres undefined)
inactive: DLD-1 15.2 µM | DMS-114 12.2 µM | KM-20L2 11.5 µM | M19-MEL 33 µM | RXF 631 6.07 µM | SNB-78 12.4 µM

O=C(Nc1ccc(Cl)cc1Cl)c1c/c(=N\O)c2ccc(O)cc2o1
inactive: DLD-1 > 100 µM | DMS-114 > 100 µM | KM-20L2 > 100 µM | M19-MEL > 100 µM | RXF 631 > 100 µM | SNB-78 > 100 µM

O=C(N/N=C(\c1nc2ccc(Cl)cc2nc1O)C(O)c1ccccc1Cl)c1ccncc1 (centres undefined)
inactive: DLD-1 > 100 µM | DMS-114 > 100 µM | DMS-273 > 100 µM | KM-20L2 > 100 µM | M19-MEL > 100 µM | RXF 631 > 100 µM

CN(C)Cc1cc(/C(=C(\C#N)c2ccccc2)c2ccc(O)cc2)ccc1O
inactive: DLD-1 20.8 µM | DMS-114 15.1 µM | DMS-273 17.4 µM | KM-20L2 20.4 µM | M19-MEL 16.9 µM | RXF 631 17.8 µM | SNB-78 32.1 µM
